Where two headings read alike, the source gives them in different places.

Type in all cases: in vivo
The test system of experiment [1] is Beet Armyworm (Spodoptera exigua, LAPHEG). Briefly: Bioassay on Beet Armyworm (BAW), 128-well diet tray assay. The gist of the method:
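Second instar larvae were exposed to diet treated at 50 μg/cm^2 for five to seven days at 25° C.; mortality was averaged over eight wells.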

The test system of experiment [2] is Cabbage Looper (Trichoplusia ni, TRIPNI). Briefly: Bioassay on Cabbage Looper (CL), 128-well diet tray assay. The conditions noted are these: Trichoplusia ni. The procedure, abridged: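 Second-instar larvae, one to five per well, placed on artificial diet treated with 50 μg/cm^2 test molecule in 90:10 acetone-water, dried before infestation. Held 5–7 days at 25° C, 14:10 light-dark; percent mortality averaged over eight wells.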

The subject of experiment [3] is Green Peach Aphid (Myzus persicae, MYZUPE). The experiment is described as follows: Bioassay on Green Peach Aphid (GPA), foliar spray on infested cabbage seedlings. The following applies: 72 h. The gist of the method:
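Cabbage seedlings (2-3 true leaves) infested with 20-50 wingless adult and nymph aphids one day before treatment; sprayed to runoff at 200 ppm in 0.025% Tween 20 water with 20% acetone/methanol, four pots per treatment. Held three days at about 25° C; live aphids counted, % control by Abbott's correction versus solvent check.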

Experiment [4] deals with Yellow Fever Mosquito (Aedes aegypti, AEDSAE). The experiment is described as follows: Bioassay on Yellow Fever Mosquito (YFM), 96-well plate larval assay. The following applies: for YFM (Biological Results, rating): Species YFM (Yellow Fever Mosquito); for YFM rating: Yellow Fever Mosquito, 96-well plate larval assay. The gist of the method:
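Compound stocks at 4000 ppm in DMSO were diluted with 90:10 water/acetone, and 15 μL aliquots were dispensed into six replicate plates. About 1-day-old larvae in liver-powder water were added per well. Plates were covered and held at room temperature for 3 days before each well was scored for mortality.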

The mark [5] stands for this setting: Species BAW (Beet Armyworm), read-out: BAW (Biological Results, rating).
[6] abbreviates: Species CL (Cabbage Looper), read-out: CL (Biological Results, rating).
The mark [7] stands for this setting: foliar, Species GPA (Green Peach Aphid), read-out: GPA (Biological Results, rating).
Where [8] appears, read: Beet Armyworm, 128-well diet tray assay, read-out: BAW rating.
[9] abbreviates: Cabbage Looper, 128-well diet tray assay, read-out: CL rating.
Where [10] appears, read: Green Peach Aphid, foliar spray on cabbage seedlings, read-out: GPA rating.

In the case of `CCN(C(=O)c1cc(NC(=O)[C@H]2[C@H](c3cc(Cl)cc(Cl)c3)C2(Cl)Cl)ccc1Cl)c1ccc(F)cc1` (relative stereo) [F99, trans-2-Chloro-5-(2,2-dichloro-3-(3,5-dichlorophenyl)cyclopropane-1-carboxamido)-N-ethyl-N-(4-fluorophenyl)benzamide], the pest or weed control at 50 µg/cm2 in experiment [1] (setting [5]) and in experiment [2] (setting [6]) was 50 to 100% throughout. Also, the pest or weed control at 200 µg/mL in experiment [3] (setting [7]) lay in the range of 80 to 100%. Further, in experiment [4], the “YFM (Biological Results, rating)” value is on record as “B (More than 0-Less than 80)”.

Regarding `CCCN(C(=O)c1cc(NC(=O)[C@H]2[C@H](c3cc(Cl)cc(Cl)c3)C2(Cl)Cl)ccc1Cl)c1ccc(F)cc1` (relative stereo) [F101, trans-2-Chloro-5-(2,2-dichloro-3-(3,5-dichlorophenyl)cyclopropane-1-carboxamido)-N-(4-fluorophenyl)-N-propylbenzamide], the pest or weed control at 50 µg/cm2 in experiment [1] (setting [5]) and in experiment [2] (setting [6]) was 50 to 100% throughout. The pest or weed control at 200 µg/mL in experiment [3] (setting [7]) was 0 to 80%. For the same molecule, the “YFM (Biological Results, rating)” value in experiment [4] was “A (80-100)”.

For the molecule `O=C(Nc1ccc(F)cc1)c1cc(NC(=O)[C@H]2[C@H](c3cc(Cl)cc(Cl)c3)C2(Cl)Cl)ccc1F` (relative stereo) [F129, trans-5-(2,2-Dichloro-3-(3,5-dichlorophenyl)cyclopropane-1-carboxamido)-2-fluoro-N-(4-fluorophenyl)benzamide], the pest or weed control at 50 µg/cm2 in experiment [1] (setting [5]) and in experiment [2] (setting [6]) was 50 to 100% in each case. For the same molecule, in experiment [3] (setting [7]), the pest or weed control at 200 µg/mL lay in the range of 80 to 100%. In addition, the “YFM (Biological Results, rating)” value in experiment [4] was “A (80-100)”.

Turning to `O=C(Nc1ccc(F)cc1)c1nc(NC(=O)[C@H]2[C@H](c3cc(Cl)cc(Cl)c3)C2(Cl)Cl)ccc1Cl` (relative stereo) [F131, trans-3-Chloro-6-(2,2-dichloro-3-(3,5-dichlorophenyl)cyclopropane-1-carboxamido)-N-(4-fluorophenyl)picolinamide], the pest or weed control at 50 µg/cm2 in experiment [1] (setting [5]) and in experiment [2] (setting [6]) was 50 to 100% in each case. The pest or weed control at 200 µg/mL in experiment [3] (setting [7]) lay within 0 to 80%. In addition, the “YFM (Biological Results, rating)” value in experiment [4] is recorded as “A (80-100)”.

`O=C(Nc1ccc[n+]([O-])c1)c1cc(NC(=O)[C@H]2[C@H](c3cc(Cl)cc(Cl)c3)C2(Cl)Cl)ccc1Cl` (relative stereo) [F139, trans-3-(2-chloro-5-(2,2-dichloro-3-(3,5-dichlorophenyl)cyclopropane-1-carboxamido)benzamido)pyridine 1-oxide]: the pest or weed control at 50 µg/cm2 in experiment [1] (setting [5]) and in experiment [2] (setting [6]) was 50 to 100% in each case. In experiment [3] (setting [7]), the pest or weed control at 200 µg/mL was in the range of 0 to 80%. Besides, the “YFM (Biological Results, rating)” value in experiment [4] is on record as “A (80-100)”.

On to `O=C(Nc1cccnc1F)c1cc(NC(=O)[C@H]2[C@H](c3cc(Cl)cc(Cl)c3)C2(Cl)Cl)ccc1Cl` (relative stereo) [F156, trans-2-Chloro-5-(2,2-dichloro-3-(3,5-dichlorophenyl)cyclopropane-1-carboxamido)-N-(2-fluoropyridin-3-yl)benzamide], for which the pest or weed control at 50 µg/cm2 in experiment [1] (setting [5]) and in experiment [2] (setting [6]) was 50 to 100% in each case. Moreover, in experiment [3] (setting [7]), the pest or weed control at 200 µg/mL lay in the range of 80 to 100%. Besides, in experiment [4], the “YFM (Biological Results, rating)” value was “B (More than 0-Less than 80)”.

`O=C(Nc1c(F)cccc1F)c1cc(NC(=O)[C@H]2[C@H](c3cc(Cl)cc(Cl)c3)C2(Br)Br)ccc1Cl` (relative stereo) [F162, trans-2-Chloro-5-(2,2-dibromo-3-(3,5-dichlorophenyl)cyclopropane-1-carboxamido)-N-(2,6-difluorophenyl)benzamide]: the pest or weed control at 50 µg/cm2 in experiment [1] (setting [5]) and in experiment [2] (setting [6]) was 50 to 100% throughout. The pest or weed control at 200 µg/mL in experiment [3] (setting [7]) lay in the range of 0 to 80%. The “YFM (Biological Results, rating)” value in experiment [4] is “B (More than 0-Less than 80)”.

Consider `O=C(Nc1c(F)cccc1F)c1cc(NC(=O)[C@H]2[C@H](c3ccc(Cl)c(F)c3)C2(Cl)Cl)ccc1Cl` (relative stereo) [F163, trans-2-Chloro-5-(2,2-dichloro-3-(4-chloro-3-fluorophenyl)cyclopropane-1-carboxamido)-N-(2,6-difluorophenyl)benzamide], for which the pest or weed control at 50 µg/cm2 in experiment [1] (setting [5]) and in experiment [2] (setting [6]) was 50 to 100% each time. Besides, in experiment [3] (setting [7]), the pest or weed control at 200 µg/mL fell in the range of 0 to 80%. The “YFM (Biological Results, rating)” value in experiment [4] is “B (More than 0-Less than 80)”.

For the molecule `O=C(Nc1ccc(F)cc1F)c1cc(NC(=O)[C@H]2[C@H](c3cc(F)cc(C(F)(F)F)c3)C2(Cl)Cl)ccc1Cl` (relative stereo) [F412, 2-Chloro-5-(trans)-(2,2-dichloro-3-(3-fluoro-5-(trifluoromethyl)phenyl)cyclopropane-1-carboxamido)-N-(2,4-difluorophenyl)benzamide], the pest or weed control at 50 µg/cm2 in experiment [1] (setting [8]) and in experiment [2] (setting [9]) was 50 to 100% in each case. For the same molecule, in experiment [3] (setting [10]), the pest or weed control at 200 µg/mL was 80 to 100%. Besides, the YFM rating entry in experiment [4] was “A (80-100)”.

Regarding `O=C(Nc1ccc(F)cc1F)c1cc(NC(=O)[C@H]2[C@H](c3cc(F)cc(Br)c3)C2(Cl)Cl)ccc1Cl` (relative stereo) [F423, 5-(trans)-(3-(3-Bromo-5-fluorophenyl)-2,2-dichlorocyclopropane-1-carboxamido)-2-chloro-N-(2,4-difluorophenyl)benzamide], the pest or weed control at 50 µg/cm2 in experiment [1] (setting [8]) and in experiment [2] (setting [9]) was 50 to 100% in each case. Also, the pest or weed control at 200 µg/mL in experiment [3] (setting [10]) was in the range of 80 to 100%. For the same molecule, the YFM rating entry in experiment [4] is “A (80-100)”.

As for `O=C(Nc1cnc2[nH]ccc2c1)c1cc(NC(=O)[C@H]2[C@H](c3cc(Cl)cc(Cl)c3)C2(Cl)Cl)ccc1Cl` (relative stereo) [F481, 2-Chloro-5-(trans)-(2,2-dichloro-3-(3,5-dichlorophenyl)cyclopropane-1-carboxamido)-N-(1H-pyrrolo[2,3-b]pyridin-5-yl)benzamide], the pest or weed control at 50 µg/cm2 in experiment [1] (setting [8]) and in experiment [2] (setting [9]) was 50 to 100% in each case. For the same molecule, the pest or weed control at 200 µg/mL in experiment [3] (setting [10]) lay within 0 to 80%. Moreover, the YFM rating entry in experiment [4] is given as “A (80-100)”.

`O=C(Nc1ccc(F)cc1)c1cc(NC(=O)[C@H]2[C@H](c3ccc(F)c(Cl)c3)C2(Cl)Cl)ccc1Cl` (relative stereo) [PF4, trans-2-Chloro-5-(2,2-dichloro-3-(3-chloro-4-fluorophenyl)cyclopropane-1-carboxamido)-N-(4-fluorophenyl)benzamide]: the pest or weed control at 50 µg/cm2 in experiment [1] (setting [8]) and in experiment [2] (setting [9]) was 50 to 100% each time. In experiment [3] (setting [10]), the pest or weed control at 200 µg/mL fell in the range of 80 to 100%. In experiment [4], the YFM rating entry is on record as “B (More than 0-Less than 80)”.

Take `CN(C(=O)c1cc(NC(=O)[C@H]2[C@H](c3ccc(F)c(Cl)c3)C2(Cl)Cl)ccc1Cl)c1ccc(F)cc1` (relative stereo) [PF5, trans-2-Chloro-5-(2,2-dichloro-3-(3-chloro-4-fluorophenyl)cyclopropane-1-carboxamido)-N-(4-fluorophenyl)-N-methylbenzamide]: the pest or weed control at 50 µg/cm2 in experiment [1] (setting [8]) and in experiment [2] (setting [9]) was 50 to 100% throughout. Moreover, the pest or weed control at 200 µg/mL in experiment [3] (setting [10]) lay in the range of 80 to 100%. Also, in experiment [4], the YFM rating result is “A (80-100)”.

The record behind these values is patent US10219516B2, “Molecules having pesticidal utility, and intermediates, compositions, and processes, related thereto” (priority 2015, dated 2019).
